Source: patent US9447075B2, “Pyridazine derivatives as EAAT2 activators” (The Brigham and Women's Hospital, Inc., priority 2011, dated 2016)

What was measured:
[1] = biological target: T1, CYP1A2 (Homo sapiens, UniProt P05177); assay: In vitro side effect profiling: CYP1A2; assay type: in vitro ADME; conditions: duplicate, read-out: inhibition on cytochrome p450 CYP1A2
T1 sequence (P05177 1-516): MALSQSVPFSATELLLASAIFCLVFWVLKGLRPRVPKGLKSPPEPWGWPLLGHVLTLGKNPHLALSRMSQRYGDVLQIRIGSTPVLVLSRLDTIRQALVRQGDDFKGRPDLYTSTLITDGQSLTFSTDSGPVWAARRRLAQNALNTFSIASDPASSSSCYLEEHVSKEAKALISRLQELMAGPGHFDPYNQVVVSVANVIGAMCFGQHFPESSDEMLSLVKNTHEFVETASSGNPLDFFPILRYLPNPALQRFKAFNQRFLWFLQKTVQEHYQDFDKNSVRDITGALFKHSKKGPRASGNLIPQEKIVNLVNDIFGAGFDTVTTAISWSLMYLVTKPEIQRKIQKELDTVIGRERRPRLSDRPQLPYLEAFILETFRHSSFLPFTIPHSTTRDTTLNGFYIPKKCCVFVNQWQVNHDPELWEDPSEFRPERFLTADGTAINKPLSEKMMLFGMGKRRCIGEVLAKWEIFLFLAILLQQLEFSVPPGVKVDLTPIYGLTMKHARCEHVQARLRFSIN
Procedure: To assess Compound 212320's biological activity and selectivity, we performed an in vitro side effect profiling study. Seventy-one targets were tested at 10 μM in duplicate. These targets include neurotransmitter related receptors (30), steroids (2), ion channels (6), second messenger (1), prostaglandins (3), growth factors/hormones (4), brain/gut peptides (13), enzymes (5) and cytochrome p450 (7). […] Additionally, we performed a protein kinase profiling study. Compound 212320 was tested at 1 and 10 μM against 288 kinases. […] These studies indicate that Compound 212320 has high specificity and low side-effects/toxicity potential.

[2] = tested on: EAAT2; assay: EAAT2 protein levels and glutamate uptake in primary dissociated neuron and astrocyte mixed cultures; assay type: cell-based; conditions: seven day-old mixed cultures, serum-free media, 48 hr
Procedure: We next evaluated Compound 212320 in primary dissociated neuron and astrocyte mixed cultures. Seven day-old cultures were treated with Compound 212320 in serum-free media for 48 hr. As shown in FIG. 7A-B, Compound 212320 increased EAAT2 protein levels and glutamate uptake function.

Compound: Cc1ccccc1CSc1ccc(-c2ccccn2)nn1 [Compound 7-4]
- inhibition at 10 µM [1]: 69%
- EAAT2 protein levels [2]: increased
- Glutamate uptake function [2]: increased
